Results published in PMC3606118, “Salvianolic Acid A, a Novel Matrix Metalloproteinase-9 Inhibitor, Prevents Cardiac Remodeling in Spontaneously Hypertensive Rats” (PLoS ONE, 2013).

Tests used:
MMP-9 CD [1] = target: T1, MMP-9 CD (Homo sapiens, UniProt P14780, DEL217-390); test: Real time binding by surface plasmon resonance (Biacore); settings: for Kd: steady state affinity fit model, immobilized MMP-9 CD, 25°C, read-out: equilibrium dissociation constant (KD); for binding on MMP-9 CD: surface plasmon resonance
T1 construct: corresponding to residues 107–216 and 391–444; made in house
T1 sequence (P14780 with tags, fused parts or gaps DEL217-390 limits assumed): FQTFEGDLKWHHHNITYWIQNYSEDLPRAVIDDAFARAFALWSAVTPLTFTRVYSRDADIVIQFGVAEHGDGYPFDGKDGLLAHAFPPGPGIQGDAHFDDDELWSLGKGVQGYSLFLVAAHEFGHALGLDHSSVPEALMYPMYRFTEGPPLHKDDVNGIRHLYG
Procedure: DNA fragments encoding the catalytic domain of MMP-9 (MMP-9 CD, corresponding to residues 107–216 and 391–444) were constructed and subcloned into a pET-15b vector (Novagen). […]. Surface plasmon resonance analysis was performed using Biacore 3000 (Biacore AB). In brief, MMP-9 CD protein (5.8 µmol/L) in 10 mmol/L sodium acetate buffer (pH 3.73) was covalently immobilized on the hydrophilic carboxymethylated dextran matrix of the CM5 sensor chip (BIAcore AB) using standard primary amine coupling procedure. Phenolic acid at various concentrations in HBS-EP running buffer (10 mmol/L HEPES pH 7.4, 150 mmol/L NaCl, 3.4 mmol/L EDTA and 0.005% surfactant P20) were injected at a constant flow rate of 30 µL/min at 25°C. All data were analyzed by BIAevaluation software and the sensorgrams were processed by automatic correction for nonspecific bulk refractive index effects.

MMP-9 CD [2] = target: T1, MMP-9 CD; test: MMP-9 inhibition assay (thiopeptolide, enzyme kinetic analysis); format: biochemical; settings: for Ki: spectrophotometric enzyme kinetic assay, thiopeptolide substrate; for inhibition on MMP-9 CD: enzyme kinetic assay
Procedure: Phenolic acids at the indicated concentrations were incubated with the reaction mixtures contained MMP-9 CD (15 nmol/L) and 5,5′-dithiobis-(2-nitrobenzoic acid) (1 mmol/L) at 4°C for 30 min. The reaction was initiated by the addition of thiopeptolide (Ac-Pro-Leu-Gly-S-Leu-Leu-Gly-OEt). Hydrolysis of thiopeptolide was monitored at 412 nm using Benchmark Plus™ microplate spectrophotometer (Bio-Rad) at room temperature. Kinetic analysis of phenolic acids against MMP-9 CD was calculated using double reciprocal plots of 1/V versus 1/[thiopeptolide]. The slope of every double reciprocal plot is the Km ^app/Vmax of enzyme at different compound concentration. Secondary plot was drawn through Km ^app/Vmax versus compound concentration. Km ^app is apparent value of Km; Ki is inhibition constant; Ki was calculated using the equation Ki = [Km/Vmax][compound]/(Km ^app/Vmax –Km/Vmax).

SMILES	Kd (MMP-9 CD [1])	Ki (MMP-9 CD [2])	binding on MMP-9 CD (MMP-9 CD [1])	inhibition on MMP-9 CD (MMP-9 CD [2])
O=C(/C=C/c1ccc(O)c2oc(-c3ccc(O)c(O)c3)cc12)O[C@H](Cc1ccc(O)c(O)c1)C(=O)O [SalC, salvianolic acid C]	1.13 µM	110 ± 33.1 µM		
O=C(O)[C@H](O)Cc1ccc(O)c(O)c1 [danshensu]			Neither binding nor inhibition was found	Neither binding nor inhibition was found
O=C(/C=C/c1ccc(O)c2c1[C@H](C(=O)O)[C@@H](c1ccc(O)c(O)c1)O2)O[C@H](Cc1ccc(O)c(O)c1)C(=O)O [lithospermic acid]	66.2 µM	324 ± 132 µM		
O=Cc1ccc(O)c(O)c1 [protocatechualdehyde]			Neither binding nor inhibition was found	Neither binding nor inhibition was found
O=C(/C=C/c1ccc(O)c(O)c1)O[C@H](Cc1ccc(O)c(O)c1)C(=O)O [rosmarinic acid]	10.7 µM	126 ± 8.73 µM		
